Results as given in US5593835A, “Methods and kits for RNA binding compounds” (President and Fellows of Harvard College, priority 1995, dated 1997).

Key:
[1] = target: W13 RNA having SEQ ID NO:1; assay: Fluorescence (PYT quenching) titration and competition binding to W13 RNA; conditions: for competition with PYT binding (in words): fluorescence competition assay
Description: To study the binding behavior of clone W13, a fluorescently labelled pyrene-conjugated tobramycin derivative "PYT" was prepared.
For competitive binding studies, different concentrations of antibiotic (glucosamine (0-10 mM), erythromycin (0-6 mM), gentamicin C (0-700 μM), or neomycin B (0-650 μM)), were mixed with constant concentrations of RNA (300 nM W13) and PYT (150 nM), in Binding buffer (140 mM NaCl, 5 mM KCl, 1 mM MgCl2, 1 mM CaCl2, 20 mM HEPES, pH 7.4), 750 μl total volume, for 1-5 min. at 20° C. in a semimicro-cell cuvette. The fluorescence was measured on a Perkin-Elmer Model 512 double beam fluorescence spectrophotometer. The excitation wavelength used was 341 nm. The intensities of fluorescence emission at 380 nm were used to calculate dissociation constants. Generally 8 to 10 points were used for calculation.
(§1) Steady state fluorescence measurements were performed on a double beam fluorescence spectrometer (Perkin-Elmer Model 512, Norwalk, Conn.). The excitation wavelength was 341 nm. All measurements were done at 20° C. in 140 mM NaCl, 5 mM KCl, 1 mM CaCl2, 1 mM MgCl2, and 20 mM HEPES, pH 7.4. The KD of the PYT and the RNA aptamer was calculated by the curve fitting of the fluorescence intensity as a function of RNA concentration, using the following equation
(assuming a 1:1 complex): I=Io +0.5Δε ([PYT]o
-(([PYT]o +[RNA]o KI)^2 -4[PYT]o [RNA]o)^0.5)
(§2) Competition binding measurements of antibiotics with RNA and PYT were performed at constant concentrations of PYT and RNA by monitoring fluorescence intensity changes as a function of changing concentrations of the antibiotics (a standard fluorescence curve). The KD s for the antibiotics were calculated by the curve fitting of the fluorescence intensity of PYT as a function of antibiotic concentration, using the following equation:
I=Io +Δε[PYT.circle-solid.RNA]
[PYT.circle-solid.RNA]=0.5(([PYT]o +[RNA]o)([RNA]o
+KD)+KI ([T]o +[RNA]o +KD)-((([PYT]o
+[RNA]o)([RNA]o +KD)+KI ([T]o +[RNA]o
+KD))^2 -4([RNA]o +KD) [PYT]o [RNA]o
([RNA]o +KD))^0.5)([RNA]o +KD) (equation 2)
KD and KI are the dissociation constants for the antibiotic and PYT respectively.
[T]o is the total concentration of antibiotic added. Measurements were taken at least twice for each measured KD.

[2] = target: random selected RNA pool (low stringency tobramycin column); assay: Fluorescence assay, average binding of the random selected RNA pool; conditions: overall selected pool mixture
Description: To determine whether the W13 RNA clone is representative of the average binding capacity of the random selected RNA pool, the average KD values for the random selected pool were measured. […] Therefore, the W13 RNA is representative of the average binding capacity of the random selected pool.
as §1
as §2, with “equation: […]” for “equation:”

J6 RNA (SEQ ID NO:5) = assay: Fluorescence binding measurements, J6 RNA; conditions: K1 - high affinity; fluorescent ligand per footnote a/b; read-out: Dissociation Constants K1(PYT)
Description: (§3) The binding of tobramycin to two cloned RNAs X1 (SEQ ID NO:2) and J6 (SEQ ID NO:5), representative of both classes of consensus sequences, was measured using the fluorescence techniques described in the exemplification.
as §1
as §2, with “equation: […]” for “equation:”

[3] = target: J6a1 RNA (SEQ ID NO: 5), synthetically derived from the predicted structures; assay: Fluorescence binding measurements, J6a1 RNA; conditions: K1 - high affinity; fluorescent ligand per footnote a/b; read-out: Dissociation Constants K1(PYT)
Description: as §3
(§4) *synthetically derived from the predicted structures
as §1
as §2, with “equation: […]” for “equation:”

RRE region of HIV RNA = assay: Fluorescence binding and competitive binding to RRE RNA; conditions: competition, 100 nM RNA, 15 nM fluorescent tobramycin, 20° C., pH 7.4; read-out: Dissociation Constant (KD) RRE RNA
Description: In order to quantitatively determine whether fluorescently labelled tobramycin and other antibiotics bind directly to the RRE region and/or to other regions of the HIV RNA, and with what affinity, the RRE and TAR regions of HIV RNA were prepared and used in the method of the invention as target RNAs.
For binding studies, different concentrations of RRE RNA (from 0 to 300 nm) were mixed with a constant concentration (15 nM) PYT in Binding buffer (140 mM NaCl, 1 mM MgCl2, 20 mM HEPES, pH 7.4), 2 ml total volume, for 1-5 min. at 20° C. in a semimicro-cell cuvette. The fluorescence was measured on a Perkin-Elmer Model 512 double beam fluorescence spectrophotometer. The excitation wavelength used was 330 nm. The intensities of fluorescence emission at 390 nm were used to calculate dissociation constants. Generally 8 to 12 points were used for calculation.
In other competitive binding studies, TAR or RRE RNA was added at a constant concentration of 100 nM±5% and PYT at 15 nM. Different concentrations of competitive antibiotic (tobramycin (o-60 μM), gentamicin C (0-100 μM), neomycin B (0-4 μM), or lividomycin A (0-100 μM) or Rev protein (0-6 μM) were mixed with constant concentrations of RNA (100 nM TAR or RRE) and C1PYT (15 nM), in Binding buffer (140 mM NaCl, 5 mM KCl, 1 mM MgCl2, 20 mM HEPES, pH 7.4), 2 ml total volume, for 1-5 min. at 20° C. in a semimicrocell cuvette. The fluorescence was measured on a Perkin-Elmer Model 512 double beam fluorescence spectrophotometer. The excitation wavelength used was 330 nm. The intensities of fluorescence emission at 390 nm were used to calculate dissociation constants. Generally 8 to 12 points were used for calculation.
Wild type and mutant RRE RNAs were transcribed in vitro by T7 RNA polymerase using synthetic oligonucleotide templates, as described by Milligan et al. (Meth. Enzymol. (1989) 180: 51-62).
as §2, with “equation: […]” for “equation:”

[4] = target: clone W13 RNA (SEQ ID NO:1), tobramycin-selected RNA aptamer; assay: Equilibrium dialysis binding to clone W13 RNA; conditions: equilibrium dialysis, direct; read-out: KD
Description: One of these RNAs, clone W13 (SEQ ID NO:1) was chosen for quantitative studies to determine the specificity of its binding to RNA. […] The dissociation constant for tobramycin was determined to be 3 μM by competition studies with ^3 H-acetyl tobramycin. These values are close to those measured for tobramycin and ^3 H-acetyl tobramycin binding to ribosomal targets (LeGoffic et al. (1979) Eur. J. Biochem. 102: 73-81).
Equilibrium dialysis measurements were performed according to the procedure of Lorsch et al. (Biochem. (1994) 33: 973-982).

[5] = target: X1s1 RNA (SEQ ID NO: 3), synthetically derived from the predicted structures; assay: Fluorescence binding measurements, X1s1 RNA; conditions: K1 - high affinity; footnote b: ligand is 6'N4-pyreneacetyl tobramycin; read-out: Dissociation Constants K1(PYT)
Description: as §3, §4, §1
as §2, with “equation: […]” for “equation:”

[6] = system: RNA pool transcribed from DNA after the sixth selection, bound to tobramycin affinity column; assay: Elution of bound RNA from tobramycin affinity column; format: binding; conditions: 10 column volumes of selection buffer containing 50 mM D-glucosamine
Excerpt: Elution patterns of the RNA from the columns are shown in FIG. 4 for the second and sixth selections. Over 6 cycles of selection, the percentages of RNA specifically eluted with tobramycin were <0.1%, 3.0%, 2.9%, 26%, 55%, and 82%. […] The RNA pool transcribed from DNA after the sixth selection could not be eluted from the affinity column, even after 100 column volumes of selection buffer.
An N-hydroxysuccinimide Affi-Gel affinity column (Bio-Rad, Hercules, Calif.) was derivatized with either 20 μmoles or 0.075 μmoles tobramycin per ml of gel to generate the affinity columns. Excess N-hydroxysuccinimide linkages were blocked by adding 1M ethanolamine. The resulting column served as the support for the RNA selections. The tobramycin concentration on column was estimated as about 15 mM. Selections were performed in 1 ml column volumes in a buffer (selection buffer) containing 140 mM NaCl, 5 mM KCl, 1 mM CaCl2, 1 mM MgCl2, and 20 mM Tris acetate, pH 7.4 (Bock et al. (1992) Nature 355: 564-566). A 1 ml Affi-Gel 10 pre-column treated with ethanolamine was used in all selections.
The original double stranded DNA pool was constructed by large scale PCR amplification of the synthesized 109mer random DNA pool (Oligos, Etc., Inc., Wilsonville, Oreg.) containing 60 random nucleotides. […]

[7] = fluorescence, competition with PYT (150 nM PYT, 300 nM W13), 20° C., pH 7.4, N.B. = no measurable binding

Row | Compound | Kd [1, 7] [nM] | competition with PYT binding (in words) [1] | Kd (RRE region of HIV RNA) [nM] | further results
1 | N[C@@H]1[C@@H](O)[C@@H](O[C@@H]2[C@@H](O)[C@H](O[C@H]3O[C@H](CNC(=O)CCCc4ccc5ccc6cccc7ccc4c5c67)[C@@H](O)C[C@H]3N)[C@@H](N)C[C@H]2N)O[C@H](CO)[C@H]1O [PYT, 6'-N-4-pyrenebutyryl tobramycin] | 20 ± 7 | – | – | Kd ([1]; fluorescence intensity of PYT as function of RNA concentration, 1:1 complex, 20° C., pH 7.4): 20 ± 4 nM; times more tightly bound than tobramycin ([1]; ratio of KD values, PYT vs tobramycin): more than 200 times; Kd [2]: 52 ± 8 nM; Kd (J6 RNA (SEQ ID NO:5)): 5.38 ± 0.46 nM; Kd [3]: 286 ± 10 nM
2 | NC[C@@H]1O[C@H](O[C@H]2[C@@H](O)[C@H](O[C@@H]3[C@@H](O)[C@H](N)C[C@H](N)[C@H]3O[C@H]3O[C@H](CN)[C@@H](O)[C@H](O)[C@H]3N)O[C@@H]2CO)[C@H](N)[C@@H](O)[C@@H]1O [neomycin B] | – | potent inhibitors of binding | 419 ± 3.8 | –
3 | CC(=O)NCC1OC(OC2C(N)CC(N)C(OC3OC(CO)C(O)C(N)C3O)C2O)C(N)CC1O (stereo not shown) [^3 H-acetyl tobramycin, 6-N-^3 H-Acetyl Tobramycin] | – | – | – | Kd [4]: 1300 nM
4 | N[C@@H]1[C@@H](O)[C@@H](O[C@@H]2[C@@H](O)[C@H](O[C@H]3O[C@H](CNC(=O)Cc4ccc5ccc6cccc7ccc4c5c67)[C@@H](O)C[C@H]3N)[C@@H](N)C[C@H]2N)O[C@H](CO)[C@H]1O [6'N4-pyreneacetyl tobramycin, 6'-N-4-pyreneacetyl tobramycin] | – | – | – | Kd [5]: 65.1 ± 7.4 nM
5 | N[C@H]1C(O)O[C@H](CO)[C@@H](O)[C@@H]1O (stereo partly drawn) [D-glucosamine] | – | did not measurably compete with PYT binding | – | KD (μM) [1, 7]: N.B.; elution of bound RNA from tobramycin affinity column (in words) [6]: did not cause any bound RNA to be eluted
6 | CC[C@H]1OC(=O)[C@H](C)[C@@H](O[C@H]2C[C@@](C)(OC)[C@@H](O)[C@H](C)O2)[C@H](C)[C@@H](O[C@@H]2O[C@H](C)C[C@H](N(C)C)[C@H]2O)[C@](C)(O)C[C@@H](C)C(=O)[C@H](C)[C@@H](O)[C@]1(C)O [erythromycin] | 505000 ± 25000 | only weakly inhibited PYT binding | – | –
7 | NC[C@@H]1O[C@H](O[C@H]2[C@@H](O)[C@H](O[C@@H]3[C@@H](O)[C@H](N)C[C@H](N)[C@H]3O[C@H]3O[C@H](CO)[C@@H](O)C[C@H]3N)O[C@@H]2CO)[C@H](N)[C@@H](O)[C@@H]1O[C@H]1O[C@H](CO)[C@@H](O)[C@H](O)[C@@H]1O [lividomycin-A, lividomycin A] | – | – | 11900 ± 330 | –
8 | gentamicin | 4700 ± 4000 | potent inhibitors of binding | 10800 ± 680 | –
